The results in this text go back to patent publication US8394786B2, “Quinazoline derivatives” (Janssen Pharmaceutica N.V., priority 2003, dated 2013).

Experiment [1] concerns SKOV3 cells. Description: Serum starved proliferation assay on the ovarian carcinoma SKOV3 cells (C3). Particulars: Homo sapiens, SK-OV-3, 72 h, EGF stimulated (100 ng/ml, 72 hours, serum free) or 72 hours with compounds; MTT cell viability assay; read-out: SKOV3 cell (C3): pIC50 (converted). In kind it is cell-based. An outline of the steps:
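MTT viability read-out in SKOV3 cells after a 24 h pre-incubation in 10% FCS, in one of two formats. EGF-stimulated version: serum-free compound exposure followed by 100 ng/ml EGF (final) for 72 h at 37 °C, 5% CO2. Otherwise, compound alone for 72 h.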
Background: Tetrazolium dyes change colour on reduction, which living cells bring about.

Experiment [2] relates to A431 cells. Description: Proliferation assay on the squamous carcinoma cell line A431 cells (C5). It counts as cell-based. Particulars: Homo sapiens, A-431; 72 hours with compounds; MTT cell viability assay; read-out: A431 cell (C5): pIC50 (converted). The procedure:
The squamous carcinoma cell line (A431) was used in a cell proliferation assay, to assess the inhibitory effect of the compounds in whole cells.
In a first step the A431 cells were incubated for 24 hours in the presence of 10% FCS serum. In the second step the cells were incubated for 72 hours with the compounds to be tested at a final concentration of 100 ng/ml. The effect of the compounds on the cell proliferation was finally assessed in a standard MTT cell viability assay.

In experiment [3] the target is EGFR (Homo sapiens, UniProt P00533). Description: In vitro inhibition of EGFR, Flash Plate or glass-fiber filter technology (C2). More on the design: 0.5 μg EGFR-kinase domain/well. In kind it is biochemical. Conditions: EGFR-kinase domain, 5.0 μM unlabeled ATP, read-out: Kinase activity.(C2): pIC50 (converted). An outline of the steps:
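Two radiometric formats were used, each with 5.0 μM unlabeled ATP, [33P]ATP, 0.5 μg EGFR kinase domain and compounds from 1·10^−10 to 1·10^−6 M. Glass-fiber filter: 25° C for 10 min, pH 7.5, Mn2+/Mg2+, acid-stopped, phosphorimager read. Streptavidin Flash Plate: biotinylated poly(GT), pH 8.0, 30° C for 60 min.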

Chain of EGFR (P00533 712-979 limits assumed): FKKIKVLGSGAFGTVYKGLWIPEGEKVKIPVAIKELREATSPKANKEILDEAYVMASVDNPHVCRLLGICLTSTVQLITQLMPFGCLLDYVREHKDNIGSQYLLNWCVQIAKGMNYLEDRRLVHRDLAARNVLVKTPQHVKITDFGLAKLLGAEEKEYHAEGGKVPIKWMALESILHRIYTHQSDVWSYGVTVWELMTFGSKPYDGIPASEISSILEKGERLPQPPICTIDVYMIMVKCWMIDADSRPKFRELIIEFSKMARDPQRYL

For `COc1cc2ncnc3c2cc1OCCCCCN(C(=O)OC(C)(C)C)Cc1ccc(Br)cc1N3` [Compound 19, 4,6-ethanediylidenepyrimido[4,5-b][6,1,12]benzoxadiazacyclo-pentadecine-13(8H)-carboxylic acid, 17-bromo-9,10,11,12,14,19-hexahydro-20-methoxy-, 1,1-dimethylethyl ester], the IC50 in experiment [1] was 5010 nM; in experiment [2], > 3160 nM; in experiment [3], 63.1 nM.

Consider `COc1cc2ncnc3c2cc1OCCCCCNCc1ccc(Br)cc1N3` [Compound 20, 4,6-ethanediylidenepyrimido[4,5-b][6,1,12]benzoxadiazacyclo-pentadecine, 17-bromo-8,9,10,11,12,13,14,19-octahydro-20-methoxy-], for which the IC50 is 229 nM in experiment [1], 1260 nM in experiment [2] and 25.1 nM in experiment [3].

With `COc1cc2ncnc3c2cc1OCCCCOCCc1ccc(Cl)cc1N3` [Compound 23, 4,6-ethanediylidene-13H-pyrimido[4,5-b][6,11,1]benzodioxaazacyclo-pentadecine, 17-chloro-8,9,10,11,14,19-hexahydro-20-methoxy-], the IC50 was 60.3 nM in experiment [1], 501 nM in experiment [2] and 10 nM in experiment [3].

As to `COc1cc2ncnc3c2cc1OCCCCCCCCOc1cccc(c1)N3` [Compound 25, 22H-4,6-ethanediylidene-21,17-methenopyrimido[5,4-d][1,12,6]dioxaazacycloeicosine, 8,9,10,11,12,13,14,15-octahydro-24-methoxy-], the IC50 in experiment [1] was > 10000 nM; in experiment [2], > 3160 nM; in experiment [3], 631 nM.

With `COc1cc2ncnc3c2cc1OCCCNC(=O)CCc1ccc(Cl)cc1N3` [Compound 26, 4,6-ethenopyrimido[4,5-b][6,1,10]benzoxadiazacyclopentadecin-12(13H)-one, 17-chloro-8,9,10,11,14,19-hexahydro-20-methoxy-], the IC50 was 120 nM in experiment [1], 2000 nM in experiment [2] and 2.51 nM in experiment [3].

For the compound `COCCOc1cc2ncnc3c2cc1OCCCCCCOc1ccc(Br)cc1N3` [Compound 28, 4,6-ethanediylidene-19H-pyrimido[4,5-b][6,13,1]benzodioxaazacyclopentadecine, 17-bromo-8,9,10,11,12,13-hexahydro-20-(2-methoxyethoxy)-], the IC50 was 1450 nM in experiment [1], 1580 nM in experiment [2] and 25.1 nM in experiment [3].

As to `COc1cc2ncnc3c2cc1OCCCCCN(C(=O)OC(C)(C)C)Cc1cc(F)c(Cl)cc1N3` [Compound 29, 4,6-ethanediylidenepyrimido[4,5-b][6,1,12]benzoxadiazacyclopentadecine-13(8H)-carboxylic acid, 17-chloro-16-fluoro-9,10,11,12,14,19-hexahydro-20-methoxy-, 1,1-dimethylethyl ester], the IC50 is > 10000 nM in experiment [1], > 3160 nM in experiment [2] and 794 nM in experiment [3].

`COc1cc2ncnc3c2cc1OCCCCCNCc1cc(F)c(Cl)cc1N3` [Compound 30, 4,6-ethanediylidenepyrimido[4,5-b][6,1,12]benzoxadiazacyclopentadecine, 17-chloro-16-fluoro-8,9,10,11,12,13,14,19-octahydro-20-methoxy-]: the IC50 in experiment [1] is 1020 nM; in experiment [2], > 1000 nM; in experiment [3], 31.6 nM.

Turning to `COc1cc2ncnc3c2cc1OCCN(CCN1CCOCC1)CCCOc1ccc(Cl)cc1N3` [Compound 33, 4,6-etheno-19H-pyrimido[5,4-k][1,8,5,13]benzodioxadiazacyclopentadecine, 17-chloro-8,9,10,11,12,13-hexahydro-20-methoxy-10-[2-(4-morpholinyl)ethyl]-], the figures for the IC50 in experiment [1], in experiment [2] and in experiment [3] were 1740 nM, 1580 nM and 25.1 nM, respectively.
